Results as given in US20100144708A1, “HETEROCYCLIC COMPOUNDS CONTAINING NITROGEN ATOMS OR PHARMACEUTICALLY ACCEPTABLE SALTS THEREOF, PROCESS FOR THE PREPARATION THEREOF AND PHARMACEUTICAL COMPOSITION COMPRISING THE SAME FOR TREATMENT OF CANCER” (Korea Research Instititute of Bioscience and Biotechnology, priority 2006, published 2010).

Tests used:
Format in all cases: cell-based, Human
NUGC-3 (gastric cancer) = test: Test for inhibition of tumor cell growth (SRB), NUGC-3; conditions: Homo sapiens, NUGC-3; 48 hours, SRB staining
Method: (§1) Human tumor cell lines, PC-3 (prostate cancer, ATCC, USA), MBA-MB-231 (breast cancer, ATCC, USA), ACHN (kidney cancer, ATCC, USA), and NUGC-3 (gastric cancer, ATCC, USA) were cultured in RPMI 1640 media containing 10% fetal bovine serum (FBS).
(§2) In order to measure anticancer activity, a suitable concentration of cells in RPMI 1640 media containing 5% fetal bovine serum (about 5×10^4 cells/□) was aliquotted in 96-well plates, and cultured in 5% CO2 at 37° C. On day one after aliquoting the cells, before the cells were treated with the compounds, in order to determine their concentration, 50[…] of 50% trichloroacetic acid was added to each well of time zero (T0) plate, and cells were fixed to determine zero point. The cells treated with the compounds were fixed on each well having 50[…] of 50% trichloroacetic acid after 48 hours. The final concentrations of the test compounds were 0.01, 0.03, 0.1, 0.3, and 1[…]/□. The fixed plate was washed with water and dried, and then 100[…] of 0.4% sulphorhodamine B (SRB) dissolved in 0.1% acetic acid was added to the each well to stain the cells. The plate was allowed to stand for 30 minutes, and then washed with 0.1% acetic acid. Then, the plate was dried at room temperature, and treated with 10 mM tris base (pH 10.5) to dissolve staining reagent. An absorbance measured at 540 nm was calculated as a percentage of the control group, and then the concentration of the compound that inhibited tumor cell growth (GI50(□/□)) by 50% was determined.

ACHN (kidney cancer) = test: Test for inhibition of tumor cell growth (SRB), ACHN; conditions: Homo sapiens, ACHN; 48 hours, SRB staining
Method: as §1, §2

PC-3 (prostate cancer) = test: Test for inhibition of tumor cell growth (SRB), PC-3; conditions: Homo sapiens; 48 hours, SRB staining; read-out: GI50 PC-3 (prostate ancer)
Method: as §1, §2

[1] = test system: MBA-MB-231 (breast cancer); test: Test for inhibition of tumor cell growth (SRB), MBA-MB-231; conditions: Homo sapiens; 48 hours, SRB staining
Method: as §1, §2

Compound | GI50 (NUGC-3 (gastric cancer)) [µg/mL] | GI50 (ACHN (kidney cancer)) [µg/mL] | GI50 (PC-3 (prostate cancer)) [µg/mL] | GI50 [1] [µg/mL]
CCCCCCCCCCCCCC(=O)N1CC[N+](C)(CC)CC1 [Example 14, 1-ethyl-1-methyl-4-tetradecanoyl-piperazin-1-ium iodide] | 0.54 | 2.37 | 0.57 | 2.44
CCCCCCCCCCCCCC(=O)N1CC[N+](CC)(Cc2ccccc2)CC1 [Example 15, 1-benzyl-1-ethyl-4-tetradecanoyl-piperazin-1-ium bromide] | 2.07 | > 10 | 1.42 | > 10
C=CC[N+]1(CC)CCN(C(=O)CCCCCCCCCCCCC)CC1 [Example 16, 1-allyl-1-ethyl-4-tetradecanoyl-piperazin-1-ium bromide] | 0.76 | 4.26 | 0.41 | 2.49
C=CC[N+]1(C)CCN(C(=O)CCCCCCCCCCCCCCC)CC1.[Br-] [Example 17, 1-allyl-4-hexadecanoyl-1-methyl-piperazin-1-ium bromide] | 0.47 | 1.14 | 0.46 | 1.28
CCCCCCCCCCCCCCCC(=O)N1CC[N+](C)(Cc2ccc(OC)cc2)CC1.[Cl-] [Example 18, 4-hexadecanoyl-1-(4-methoxy-benzyl)-1-methyl-piperazin-1-ium chloride] | 1.16 | 1.31 | 0.49 | 0.92
C=CCCC[N+]1(C)CCN(C(=O)CCCCCCCCCCCCCCC)CC1.[Br-] [Example 19, 4-hexadecanoyl-1-methyl-1-pent-4-enyl-piperazin-1-ium bromide] | 0.63 | 1.69 | 0.55 | 1.7
C=CCC[N+]1(C)CCN(C(=O)CCCCCCCCCCCCCCC)CC1.[Br-] [Example 20, 1-but-3-enyl-4-hexadecanoyl-1-methyl-piperazin-1-ium bromide] | 0.72 | 1.58 | 0.67 | 1.52
CCCCCCCCCCCCCCCC(=O)N1CC[N+](CC)(Cc2ccccc2)CC1.[Br-] [Example 21, 1-benzyl-1-ethyl-4-hexadecanoyl-piperazin-1-ium bromide] | 0.46 | 0.92 | 0.55 | 1.16

Further lines, results first:

GI50 (NUGC-3 (gastric cancer)) [µg/mL] | GI50 (ACHN (kidney cancer)) [µg/mL] | GI50 (PC-3 (prostate cancer)) [µg/mL] | GI50 [1] [µg/mL] | Compound
0.27 | 0.5 | 0.37 | 0.68 | C=CC[N+]1(CC)CCN(C(=O)CCCCCCCCCCCCCCC)CC1.[Br-] [Example 22, 1-allyl-1-ethyl-4-hexadecanoyl-piperazin-1-ium bromide]
0.58 | 1.89 | 0.8 | 2.05 | CCCCCCCCCCCCCCCC(=O)N1CC[N+](C)(CC)CC1.[I-] [Example 23, 1-ethyl-4-hexadecanoyl-1-methyl-piperazin-1-ium iodide]
0.4 | 0.78 | 0.45 | 0.76 | C=CCCC[N+]1(CC)CCN(C(=O)CCCCCCCCCCCCCCC)CC1.[Br-] [Example 24, 1-ethyl-4-hexadecanoyl-1-pent-4-enyl-piperazin-1-ium bromide]
1.05 | 2.84 | 0.4 | 0.82 | CCCCCCCCCCCCCCCCCC(=O)N1CC[N+](C)(Cc2ccccc2)CC1 [Example 25, 1-benzyl-1-methyl-4-octadecanoyl-piperazin-1-ium bromide]
0.88 | 1.79 | 0.54 | 1.13 | C=CC[N+]1(C)CCN(C(=O)CCCCCCCCCCCCCCCCC)CC1 [Example 26, 1-allyl-1-methyl-4-octadecanoyl-piperazin-1-ium bromide]
0.67 | 1.36 | 0.41 | 1.43 | CCCCCCCCCCCCCCCCCC(=O)N1CC[N+](C)(CC)CC1 [Example 27, 1-ethyl-1-methyl-4-octadecanoyl-piperazin-1-ium iodide]
5.21 | > 10 | 3.64 | > 10 | CCCCCCCCCCCCCCCCCC(=O)N1CC[N+](CC)(Cc2ccccc2)CC1 [Example 28, 1-benzyl-1-ethyl-4-octadecanoyl-piperazin-1-ium bromide]
1.37 | 2.43 | 0.84 | 2.51 | C=CC[N+]1(CC)CCN(C(=O)CCCCCCCCCCCCCCCCC)CC1 [Example 29, 1-allyl-1-ethyl-4-octadecanoyl-piperazin-1-ium bromide]
0.61 | 1.23 | 0.34 | 1.71 | CCCCCCCCCCCCCCCCCCCC(=O)N1CC[N+](C)(CC)CC1 [Example 30, 1-ethyl-4-icosanoyl-1-methylpiperazin-1-ium iodide]
